Holding throughout (type): biochemical
One test concerns the target T1, Flt 1(h) (Homo sapiens, UniProt P17948).
T1 construct: purchased Upstate Biotechnology (Dundee, UK), KinaseProfiler service
The test can be described thus: Upstate KinaseProfiler enzyme assay, Flt 1. The conditions noted are these: 500 nM compound; read-out: Percent inhibition at 500 nM Flt 1(h). In outline:
(§1)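 Substrates are dissolved and diluted to working stocks in de-ionised water. Enzymes go into the assay from 10× working dilutions prepared in pH 7.0 MOPS buffer (20 mM) containing BSA 1 mg/ml, glycerol 5%, Brij-35 0.01%, β-mercaptoethanol 0.1% and EDTA 1 mM.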

The target in a further test is T2, Flt 4(h) (Homo sapiens, UniProt P35916).
T2 construct: purchased Upstate Biotechnology (Dundee, UK), KinaseProfiler service
T2 sequence (P35916 25-1363): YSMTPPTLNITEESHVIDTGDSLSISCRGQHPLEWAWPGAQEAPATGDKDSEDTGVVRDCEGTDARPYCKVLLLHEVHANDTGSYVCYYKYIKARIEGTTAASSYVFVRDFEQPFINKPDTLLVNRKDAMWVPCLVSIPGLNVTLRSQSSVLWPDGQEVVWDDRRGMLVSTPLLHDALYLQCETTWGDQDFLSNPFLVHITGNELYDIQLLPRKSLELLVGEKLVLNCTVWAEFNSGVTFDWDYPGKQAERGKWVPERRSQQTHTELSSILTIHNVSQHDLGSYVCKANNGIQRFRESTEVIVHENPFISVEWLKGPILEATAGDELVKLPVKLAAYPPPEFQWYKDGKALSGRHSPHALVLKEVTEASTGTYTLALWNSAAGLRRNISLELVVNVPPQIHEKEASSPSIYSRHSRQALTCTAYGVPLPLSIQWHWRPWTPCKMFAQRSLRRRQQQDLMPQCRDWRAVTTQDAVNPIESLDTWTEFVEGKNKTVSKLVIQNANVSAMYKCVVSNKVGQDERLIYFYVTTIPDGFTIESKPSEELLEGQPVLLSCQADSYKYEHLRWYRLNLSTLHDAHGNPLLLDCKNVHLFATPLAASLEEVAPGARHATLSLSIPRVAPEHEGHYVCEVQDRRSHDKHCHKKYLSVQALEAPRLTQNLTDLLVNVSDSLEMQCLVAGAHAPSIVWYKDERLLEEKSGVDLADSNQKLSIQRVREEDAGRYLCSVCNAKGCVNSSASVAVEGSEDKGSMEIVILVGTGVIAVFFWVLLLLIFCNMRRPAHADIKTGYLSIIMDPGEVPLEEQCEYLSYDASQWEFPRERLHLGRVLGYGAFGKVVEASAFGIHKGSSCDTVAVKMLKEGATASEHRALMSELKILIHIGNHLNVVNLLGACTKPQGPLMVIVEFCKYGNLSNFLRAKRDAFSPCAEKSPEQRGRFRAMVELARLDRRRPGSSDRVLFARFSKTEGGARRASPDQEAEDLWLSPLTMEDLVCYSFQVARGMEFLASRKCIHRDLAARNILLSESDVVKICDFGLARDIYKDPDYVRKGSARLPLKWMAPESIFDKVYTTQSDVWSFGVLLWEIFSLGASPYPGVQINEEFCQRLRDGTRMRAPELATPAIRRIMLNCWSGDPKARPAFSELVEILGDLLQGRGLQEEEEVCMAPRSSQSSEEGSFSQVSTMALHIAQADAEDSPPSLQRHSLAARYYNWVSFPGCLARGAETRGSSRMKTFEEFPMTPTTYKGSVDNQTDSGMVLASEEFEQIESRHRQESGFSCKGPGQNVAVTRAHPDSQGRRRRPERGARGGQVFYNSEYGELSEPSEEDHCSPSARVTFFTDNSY
The test can be described thus: Upstate KinaseProfiler enzyme assay, Flt 4. The settings on record: 500 nM compound; read-out: Percent inhibition at 500 nM Flt 4(h). In outline:
as §1

A further test deals with T3, BTK(h) (Homo sapiens, UniProt Q06187).
T3 construct: purchased Upstate Biotechnology (Dundee, UK), KinaseProfiler service
T3 sequence (Q06187 whole entry): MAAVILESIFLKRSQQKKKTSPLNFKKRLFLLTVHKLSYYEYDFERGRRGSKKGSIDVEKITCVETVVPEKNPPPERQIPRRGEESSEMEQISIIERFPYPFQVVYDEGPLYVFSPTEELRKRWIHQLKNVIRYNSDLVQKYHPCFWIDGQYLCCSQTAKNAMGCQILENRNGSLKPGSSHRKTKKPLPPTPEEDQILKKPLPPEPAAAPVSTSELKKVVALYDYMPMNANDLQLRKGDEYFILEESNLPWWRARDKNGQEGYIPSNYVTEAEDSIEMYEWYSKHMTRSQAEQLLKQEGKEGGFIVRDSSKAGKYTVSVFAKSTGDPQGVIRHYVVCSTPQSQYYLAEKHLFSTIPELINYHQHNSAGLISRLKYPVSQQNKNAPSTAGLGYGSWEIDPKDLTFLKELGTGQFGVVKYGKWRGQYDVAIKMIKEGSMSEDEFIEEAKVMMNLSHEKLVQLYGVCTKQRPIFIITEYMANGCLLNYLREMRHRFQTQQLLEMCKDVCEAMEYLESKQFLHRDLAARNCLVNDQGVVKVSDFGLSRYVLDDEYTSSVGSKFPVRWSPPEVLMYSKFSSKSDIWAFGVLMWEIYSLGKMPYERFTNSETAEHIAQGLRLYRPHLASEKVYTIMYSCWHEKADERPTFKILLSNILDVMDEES
The test can be described thus: Upstate KinaseProfiler enzyme assay, BTK. The conditions noted are these: 500 nM compound; read-out: Percent inhibition at 500 nM BTK(h). In outline:
as §1

T1 sequence (P17948 27-1338): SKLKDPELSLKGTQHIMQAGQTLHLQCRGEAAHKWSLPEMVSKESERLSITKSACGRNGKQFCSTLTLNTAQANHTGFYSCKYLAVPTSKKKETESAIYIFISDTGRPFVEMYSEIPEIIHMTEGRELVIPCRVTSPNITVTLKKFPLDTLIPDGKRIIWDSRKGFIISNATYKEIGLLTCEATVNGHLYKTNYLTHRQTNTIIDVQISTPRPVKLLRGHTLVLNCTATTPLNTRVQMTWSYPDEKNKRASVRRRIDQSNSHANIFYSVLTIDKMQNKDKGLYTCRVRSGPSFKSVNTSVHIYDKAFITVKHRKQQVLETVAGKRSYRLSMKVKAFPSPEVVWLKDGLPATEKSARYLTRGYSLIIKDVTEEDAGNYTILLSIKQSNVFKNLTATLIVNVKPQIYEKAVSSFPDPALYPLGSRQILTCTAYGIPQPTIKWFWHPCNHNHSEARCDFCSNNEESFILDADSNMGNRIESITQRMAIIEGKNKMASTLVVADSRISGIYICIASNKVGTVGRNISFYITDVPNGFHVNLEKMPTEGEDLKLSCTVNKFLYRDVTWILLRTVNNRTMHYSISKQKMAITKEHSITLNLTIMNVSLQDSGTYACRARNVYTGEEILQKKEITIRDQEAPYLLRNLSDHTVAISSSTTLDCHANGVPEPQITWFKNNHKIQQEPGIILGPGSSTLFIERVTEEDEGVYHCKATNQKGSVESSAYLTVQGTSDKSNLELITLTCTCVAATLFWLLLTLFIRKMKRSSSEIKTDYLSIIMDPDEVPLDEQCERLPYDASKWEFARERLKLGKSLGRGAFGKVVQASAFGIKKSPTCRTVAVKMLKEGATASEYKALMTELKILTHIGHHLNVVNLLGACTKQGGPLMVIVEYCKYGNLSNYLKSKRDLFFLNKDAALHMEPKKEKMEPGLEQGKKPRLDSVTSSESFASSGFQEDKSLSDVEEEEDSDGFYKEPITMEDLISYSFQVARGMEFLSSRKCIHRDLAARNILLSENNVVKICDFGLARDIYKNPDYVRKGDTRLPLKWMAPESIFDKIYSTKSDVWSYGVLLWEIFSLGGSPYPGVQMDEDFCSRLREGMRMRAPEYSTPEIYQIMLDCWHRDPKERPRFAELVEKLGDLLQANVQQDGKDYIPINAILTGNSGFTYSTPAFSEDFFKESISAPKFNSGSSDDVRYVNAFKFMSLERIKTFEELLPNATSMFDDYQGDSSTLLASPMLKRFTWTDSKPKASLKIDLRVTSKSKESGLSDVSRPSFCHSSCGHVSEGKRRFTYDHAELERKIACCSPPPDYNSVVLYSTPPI

Broadly, the inhibition is how much of the control response was suppressed. Consider `C=CC(=O)Nc1ccc(Sc2nc(Nc3ccc(N4CCOCC4)cc3)ncc2-c2ccccc2)cc1` [Compound 307, N-(4-(2-(4-morpholinophenylao)-5-phenylpyrimidin-4-ylthio)phenyl)acrylamide], for which the inhibition at 0.5 µM on Flt 1(h) was 19%; on Flt 4(h), 93%.
Consider `C=CC(=O)Nc1ccc(Sc2nc(Nc3ccc(N4CCC(C(=O)OCC)CC4)cc3)ncc2C)cc1` [Compound 292, ethyl 1-(4-(4-(4-acrylamidophenylthio)-5-methylpyrimidin-2-ylao)phenyl)piperidine-4-carboxylate], for which the inhibition at 0.5 µM on Flt 1(h) stood at 67%; on BTK(h) it was 3%; at Flt 4(h), 100%.
For the compound `Cc1cnc(Nc2ccc(N3CCOCC3)cc2)nc1Sc1ccc(N)cc1` [Compound 126, 4-(4-aophenylthio)-5-methyl-N-(4-morpholinophenyl)pyrimidin-2-ae], the inhibition at 0.5 µM amounted to 93% at Flt 1(h) and 99% on Flt 4(h).
In the case of `C=CC(=O)Nc1ccc(Sc2ccnc(Nc3ccc(N4CCS(=O)(=O)CC4)cc3)n2)cc1` [Compound 99, N-{4-[(2-{[4-(1,1-dioxo-1λ^6,4-thiomorpholin-4-yl)phenyl]ao}pyrimidin-4-yl)sulfanyl]phenyl}prop-2-enamide], on BTK(h), the inhibition at 0.5 µM stood at 100%.
The same measure, in the same setting: the result for `C=CC(=O)Nc1cccc(Sc2ccnc(Nc3ccc(OC)cc3)n2)c1` [Compound 120, N-(3-(2-(4-methoxyphenylao)pyrimidin-4-ylthio)phenyl)acrylamide] reads 100%.
As for `C=CC(=O)Nc1ccc(Sc2ccnc(Nc3ccc(OC)cc3)n2)cc1` [Compound 74, N-(4-(2-(4-methoxyphenylao)pyrimidin-4-ylthio)phenyl)acrylamide], the inhibition at 0.5 µM on BTK(h) was 100%.
Same read-out and setting: the result for `C=CC(=O)Nc1ccc(Sc2ccnc(Nc3cccc(C#N)c3)n2)cc1` [Compound 118, N-(4-(2-(3-cyanophenylao)pyrimidin-4-ylthio)phenyl)acrylamide] reads 100%.
For `C=CC(=O)Nc1ccc(Sc2ccnc(Nc3cccc(S(N)(=O)=O)c3)n2)cc1` [Compound 364, N-(4-(2-(3-sulfamoylphenylao)pyrimidin-4-ylthio)phenyl)acrylamide], the inhibition at 0.5 µM on Flt 1(h) amounted to 97%; on Flt 4(h) it was 99%.
For `C=CC(=O)Nc1ccc(Sc2ccnc(Nc3ccc(C(=O)OC)cc3)n2)cc1` [Compound 357, methyl 4-(4-(4-acrylamidophenylthio)pyrimidin-2-ylao)benzoate], in that order: 76% and 99%.
In the case of `C=CC(=O)Nc1ccc(Sc2ccnc(Nc3ccccc3)n2)cc1` [Compound 350, N-(4-(2-(phenylao)pyrimidin-4-ylthio)phenyl)acrylamide], the inhibition at 0.5 µM on BTK(h) was 100%.
On the same count and under the same terms, the figure for `C=CC(=O)Nc1ccc(Sc2ccnc(Nc3cccc(C(=O)OC)c3)n2)cc1` [Compound 356, methyl 3-(4-(4-acrylamidophenylthio)pyrimidin-2-ylao)benzoate] is 100%.
For the compound `C=CC(=O)Nc1ccc(Sc2ccnc(Nc3ccc(N4CCC(N5CCCC5)CC4)cc3)n2)cc1` [Compound 87, N-(4-(2-(4-(4-(pyrrolidin-1-yl)piperidin-1-yl)phenylao)pyrimidin-4-ylthio)phenyl)acrylamide], the inhibition at 0.5 µM at BTK(h) was determined as 100%.
With `C=CC(=O)Nc1ccc(Sc2nc(Nc3ccc(CNS(C)(=O)=O)cc3)ncc2C)cc1` [Compound 294, N-(4-(5-methyl-2-(4-(methylsulfonamidomethyl)phenylao)pyrimidin-4-ylthio)phenyl)acrylamide], the inhibition at 0.5 µM is 94% on Flt 1(h), 77% on BTK(h) and 100% at Flt 4(h).
Take `C=CC(=O)Nc1ccc(Sc2ccnc(Nc3cccc(OC)c3)n2)cc1` [Compound 105, N-(4-(2-(3-methoxyphenylao)pyrimidin-4-ylthio)phenyl)acrylamide]: at BTK(h), the inhibition at 0.5 µM worked out at 100%.
Still for that read-out and setting: the result for `CC#CC(=O)Nc1ccc(Sc2nc(Nc3ccc(N4CCOCC4)cc3)ncc2C)cc1` [Compound 125, N-(4-(5-methyl-2-(4-morpholinophenylao)pyrimidin-4-ylthio)phenyl)but-2-ynamide] reads 100%; that for `CC#CC(=O)Nc1ccc(Sc2ccnc(Nc3ccc(N4CCOCC4)cc3)n2)cc1` [Compound 104, N-(4-(2-(4-morpholinophenylao)pyrimidin-4-ylthio)phenyl)but-2-ynamide], 73%.
Still for that read-out and setting: the result for `C=CC(=O)Nc1ccc(Sc2ccnc(Nc3ccc(C#N)cc3)n2)cc1` [Compound 131, N-(4-(2-(4-cyanophenylao)pyrimidin-4-ylthio)phenyl)acrylamide] reads 100%; that for `C=CC(=O)Nc1ccc(Sc2ccnc(Nc3ccc(S(N)(=O)=O)cc3)n2)cc1` [Compound 352, N-(4-(2-(4-sulfamoylphenylao)pyrimidin-4-ylthio)phenyl)acrylamide], 100%.
Turning to `CC(=O)Nc1ccc(Sc2nc(Nc3ccc(N4CCOCC4)cc3)ncc2C)cc1` [Compound 135, N-(4-(5-methyl-2-(4-morpholinophenylao)pyrimidin-4-ylthio)phenyl)acetamide], the inhibition at 0.5 µM was 96% on Flt 1(h) and 99% on Flt 4(h).
Regarding `C=CC(=O)Nc1ccc(Sc2ccnc(Nc3ccc(F)c(C#N)c3)n2)cc1` [Compound 354, N-(4-(2-(3-cyano-4-fluorophenylao)pyrimidin-4-ylthio)phenyl)acrylamide], the inhibition at 0.5 µM at BTK(h) was 100%.
Take `C=CC(=O)Nc1cc(C)c(Sc2nc(Nc3ccc(N4CCOCC4)cc3)ncc2C)c(C)c1` [Compound 164, N-(3,5-dimethyl-4-(5-methyl-2-(4-morpholinophenylao)pyrimidin-4-ylthio)phenyl)acrylamide]: the inhibition at 0.5 µM on Flt 1(h) stood at 44%; at Flt 4(h), 97%.
Consider `C=CC(=O)Nc1ccc(Sc2ccnc(Nc3ccc(OC)c(O)c3)n2)cc1` [Compound 97], for which the inhibition at 0.5 µM at BTK(h) is 100%.
On to `C=CC(=O)Nc1ccc(Sc2ccnc(Nc3ccc(N4CCOCC4)cc3)n2)c(Cl)c1C` [Compound 161, N-(3-chloro-2-methyl-4-(2-(4-morpholinophenylao)pyrimidin-4-ylthio)phenyl)acrylamide], for which the inhibition at 0.5 µM on BTK(h) is 100%.
Consider `C=CC(=O)Nc1ccc(Sc2ccnc(Nc3ccc(Cl)cc3)n2)cc1` [Compound 353, N-(4-(2-(4-chlorophenylao)pyrimidin-4-ylthio)phenyl)acrylamide], for which the inhibition at 0.5 µM on BTK(h) turned out to be 100%.

Values taken from US8846704B2, “Thiopyrimidine-based compounds and uses thereof” (YM Biosciences Austraila Pty Ltd, priority 2007, dated 2014).
